Experimental data published in article PMC2813745, “A novel inhibitor of the PI3K/Akt pathway based on the structure of inositol 1,3,4,5,6-pentakisphosphate” (British Journal of Cancer, 2010).

How the values were obtained:
Akt1 (PKBα) = Akt1 (PKBα) (Homo sapiens, UniProt P31749); assay: SelectScreen kinase profiling: Akt1; assay type: biochemical; settings: 10-point titration; [ATP] 75 μM
Method: Effect of the indicated compounds on the activity of various kinases was assessed by SelectScreen Kinase Profiling Service (Invitrogen-Life Technologies, Paisley, UK). […] In the case of […] a screen using 10 μM of the compound was also carried out, as indicated in the corresponding table.

MAPK3 (ERK1) = MAPK3 (ERK1) (Homo sapiens, UniProt P27361); assay: SelectScreen kinase profiling: MAPK3; assay type: biochemical; settings: [ATP] 50 µM
Method: (§1) Effect of the indicated compounds on the activity of various kinases was assessed by SelectScreen Kinase Profiling Service (Invitrogen-Life Technologies, Paisley, UK). Assays were performed using 1 μM of the tested compounds and ATP concentration as indicated in the corresponding tables. In the case of […] a screen using 10 μM of the compound was also carried out, as indicated in the corresponding table.

BTK = BTK (Homo sapiens, UniProt Q06187); assay: SelectScreen kinase profiling: BTK; assay type: biochemical; settings: [ATP] 25 µM
Method: as §1

BRAF = BRAF (Homo sapiens, UniProt P15056); assay: SelectScreen kinase profiling: BRAF; assay type: biochemical; settings: [ATP] 100 µM
Method: as §1

PC3 = assay: SRB assay, PC3; assay type: cell-based, human; settings: PC3, 72 h
Method: Cells seeded in a 24-well plate were treated with the indicated compounds in serum free DMEM or DMEM containing 0.5% FBS (PC3). After 72 h, the number of surviving cells was assessed by manual cell counting or by using the cell counter CDA-500 (Sysmex, Milton Keynes, UK). Alternatively, after 48 h, the number of apoptotic cells was assessed by acridine orange/ethidium bromide assay as described ([Piccolo et al, 2004]; [Maffucci et al, 2005]). SRB test was carried out in SKOV-3 and PC3 seeded in 96-well plate (3800 cells per well or 5800 cells per well, respectively) after 72 h of treatment as described ([Cappella et al, 2001]).
The number of surviving cells was assessed by cell counting. Data are mean±s.e. of n=3 (A), n=6 (B), n=3 (C) and n=4 (D) independent experiments carried out in duplicate. ^*=P<0.01; ^**=P<0.05. […] After 72 h the number of surviving cells was assessed by SRB assay. Data are mean±s.e. of n=2 independent experiments.
Data are mean±s.e. of n=4 independent experiments carried out in duplicate. […] Data are mean±s.e. of n=5 independent experiments carried out in duplicate. […] Data are mean±s.e. of n=6 independent experiments carried out in duplicate. […] Data are mean±s.e. of n=2 independent experiments carried out in duplicate. In all cases (A–D), cells were treated for 72 h and the number of surviving cells was assessed by cell counting. […] In all cases (E, F), cells were treated for 72 h and the number of surviving cells was assessed by SRB assay and data are mean±s.e. of two experiments carried out in quadruplicate.

PRKCA (PKCα) = PRKCA (PKCα) (Homo sapiens, UniProt P17252); assay: SelectScreen kinase profiling: PRKCA; assay type: biochemical; settings: [ATP] 25 µM
Method: as §1

CDK5/p35 = CDK5/p35 (Homo sapiens, UniProt Q00535); assay: SelectScreen kinase profiling: CDK5/p35; assay type: biochemical; settings: [ATP] 10 µM
Method: as §1

MAP2K1 (MEK1) = MAP2K1 (MEK1) (Homo sapiens, UniProt Q02750); assay: SelectScreen kinase profiling: MAP2K1; assay type: biochemical; settings: [ATP] 100 µM
Method: as §1

GSK3A (GSK3α) = GSK3A (GSK3α) (Homo sapiens, UniProt P49840); assay: SelectScreen kinase profiling: GSK3A; assay type: biochemical; settings: [ATP] 10 µM
Method: as §1

PRKCB1 (PKCβI) = PRKCB1 (PKCβI) (Homo sapiens, UniProt P05771); assay: SelectScreen kinase profiling: PRKCB1; assay type: biochemical; settings: [ATP] 200 µM
Method: as §1

ABL1 = ABL1 (Homo sapiens, UniProt P00519); assay: SelectScreen kinase profiling: ABL1; assay type: biochemical; settings: [ATP] 10 µM
Method: as §1

GRK5 = GRK5 (Homo sapiens, UniProt P34947); assay: SelectScreen kinase profiling: GRK5; assay type: biochemical; settings: 1 µM compound; [ATP] 5 µM
Method: as §1

MARK1 (MARK) = MARK1 (MARK) (Homo sapiens, UniProt Q9P0L2); assay: SelectScreen kinase profiling: MARK1; assay type: biochemical; settings: [ATP] 5 µM
Method: as §1

CLK1 = CLK1 (Homo sapiens, UniProt P49759); assay: SelectScreen kinase profiling: CLK1; assay type: biochemical; settings: [ATP] 25 µM
Method: as §1

CHUK (IKKα) = CHUK (IKKα) (Homo sapiens, UniProt O15111); assay: SelectScreen kinase profiling: CHUK; assay type: biochemical; settings: [ATP] 10 µM
Method: as §1

PRKCE (PKCε) = PRKCE (PKCε) (Homo sapiens, UniProt Q02156); assay: SelectScreen kinase profiling: PRKCE; assay type: biochemical; settings: [ATP] 25 µM
Method: as §1

CSNK2A2 (CK2α2) = CSNK2A2 (CK2α2) (Homo sapiens, UniProt P19784); assay: SelectScreen kinase profiling: CSNK2A2; assay type: biochemical; settings: [ATP] 50 µM
Method: as §1

ROCK2 = ROCK2 (Homo sapiens, UniProt O75116); assay: SelectScreen kinase profiling: ROCK2; assay type: biochemical; settings: [ATP] 50 µM
Method: as §1

JAK1 = JAK1 (Homo sapiens, UniProt P23458); assay: SelectScreen kinase profiling: JAK1; assay type: biochemical; settings: [ATP] 75 µM
Method: as §1

MAPK8 (JNK1) = MAPK8 (JNK1) (Homo sapiens, UniProt P45983); assay: SelectScreen kinase profiling: MAPK8; assay type: biochemical; settings: [ATP] 100 µM
Method: as §1

RAF1 (cRAF) Y340D Y341D = RAF1 (cRAF) Y340D Y341D (Homo sapiens, UniProt P04049, Y340D/Y341D); assay: SelectScreen kinase profiling: RAF1; assay type: biochemical; settings: [ATP] 100 µM
Method: as §1

GSK3B (GSK3β) = GSK3B (GSK3β) (Homo sapiens, UniProt P49841); assay: SelectScreen kinase profiling: GSK3B; assay type: biochemical; settings: [ATP] 10 µM
Method: as §1

CHEK1 (CHK1) = CHEK1 (CHK1) (Homo sapiens, UniProt O14757); assay: SelectScreen kinase profiling: CHEK1; assay type: biochemical; settings: [ATP] 50 µM
Method: as §1

IRAK4 = IRAK4 (Homo sapiens, UniProt Q9NWZ3); assay: SelectScreen kinase profiling: IRAK4; assay type: biochemical; settings: [ATP] 25 µM
Method: as §1

RPS6KB1 (p70S6K) = RPS6KB1 (p70S6K) (Homo sapiens, UniProt P23443); assay: SelectScreen kinase profiling: RPS6KB1; assay type: biochemical; settings: [ATP] 10 µM
Method: as §1

CSNK1A1 (CK1α1) = CSNK1A1 (CK1α1) (Homo sapiens, UniProt P48729); assay: SelectScreen kinase profiling: CSNK1A1; assay type: biochemical; settings: [ATP] 5 µM
Method: as §1

MAPK1 (ERK2) = MAPK1 (ERK2) (Homo sapiens, UniProt P28482); assay: SelectScreen kinase profiling: MAPK1; assay type: biochemical; settings: [ATP] 100 µM
Method: as §1

Sequence of BTK (Q06187 whole entry): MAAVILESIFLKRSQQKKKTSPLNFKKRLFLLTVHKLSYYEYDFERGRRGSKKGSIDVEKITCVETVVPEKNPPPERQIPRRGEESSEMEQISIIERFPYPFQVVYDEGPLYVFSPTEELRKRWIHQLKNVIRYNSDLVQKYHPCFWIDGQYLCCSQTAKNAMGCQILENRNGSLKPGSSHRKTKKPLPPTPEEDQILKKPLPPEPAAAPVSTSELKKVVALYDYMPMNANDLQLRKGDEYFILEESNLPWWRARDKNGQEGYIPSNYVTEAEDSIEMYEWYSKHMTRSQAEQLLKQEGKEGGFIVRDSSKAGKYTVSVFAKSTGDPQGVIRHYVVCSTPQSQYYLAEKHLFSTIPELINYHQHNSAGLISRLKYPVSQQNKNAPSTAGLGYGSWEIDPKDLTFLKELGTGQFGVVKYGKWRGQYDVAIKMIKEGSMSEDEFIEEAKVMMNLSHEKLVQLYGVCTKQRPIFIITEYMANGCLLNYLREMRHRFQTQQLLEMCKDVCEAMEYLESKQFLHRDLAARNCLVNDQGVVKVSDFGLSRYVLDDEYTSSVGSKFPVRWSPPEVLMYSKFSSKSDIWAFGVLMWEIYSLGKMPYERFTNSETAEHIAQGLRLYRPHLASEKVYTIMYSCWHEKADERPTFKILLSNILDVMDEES
Sequence of GRK5 (P34947 whole entry): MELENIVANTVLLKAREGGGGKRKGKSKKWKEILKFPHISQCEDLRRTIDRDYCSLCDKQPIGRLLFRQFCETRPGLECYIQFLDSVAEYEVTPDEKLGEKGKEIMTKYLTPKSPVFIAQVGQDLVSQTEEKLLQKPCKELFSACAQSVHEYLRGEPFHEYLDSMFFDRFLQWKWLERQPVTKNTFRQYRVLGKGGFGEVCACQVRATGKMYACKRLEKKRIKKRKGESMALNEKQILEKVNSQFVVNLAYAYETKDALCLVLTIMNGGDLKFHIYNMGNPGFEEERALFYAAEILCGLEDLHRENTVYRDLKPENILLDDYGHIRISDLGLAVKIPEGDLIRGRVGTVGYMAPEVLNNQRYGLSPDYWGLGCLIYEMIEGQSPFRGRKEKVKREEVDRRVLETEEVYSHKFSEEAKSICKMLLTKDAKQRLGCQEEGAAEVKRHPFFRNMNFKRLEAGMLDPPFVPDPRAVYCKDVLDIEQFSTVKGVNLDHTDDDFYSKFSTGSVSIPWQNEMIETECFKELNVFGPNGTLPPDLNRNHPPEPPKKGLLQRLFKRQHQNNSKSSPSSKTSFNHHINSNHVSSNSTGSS
Sequence of IRAK4 (Q9NWZ3 whole entry): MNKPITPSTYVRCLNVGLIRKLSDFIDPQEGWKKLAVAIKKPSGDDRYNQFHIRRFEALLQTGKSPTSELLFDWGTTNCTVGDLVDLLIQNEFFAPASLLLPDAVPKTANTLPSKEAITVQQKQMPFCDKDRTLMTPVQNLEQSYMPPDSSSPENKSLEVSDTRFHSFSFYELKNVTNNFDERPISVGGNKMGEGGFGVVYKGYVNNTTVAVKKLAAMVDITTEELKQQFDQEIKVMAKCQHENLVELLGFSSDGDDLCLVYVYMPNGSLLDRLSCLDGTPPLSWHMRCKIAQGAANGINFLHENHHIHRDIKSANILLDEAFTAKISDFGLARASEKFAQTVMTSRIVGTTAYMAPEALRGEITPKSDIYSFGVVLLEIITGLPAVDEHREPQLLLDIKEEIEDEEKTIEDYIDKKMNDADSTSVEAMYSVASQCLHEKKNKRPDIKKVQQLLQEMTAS
Sequence of MAP2K1 (MEK1) (Q02750 whole entry): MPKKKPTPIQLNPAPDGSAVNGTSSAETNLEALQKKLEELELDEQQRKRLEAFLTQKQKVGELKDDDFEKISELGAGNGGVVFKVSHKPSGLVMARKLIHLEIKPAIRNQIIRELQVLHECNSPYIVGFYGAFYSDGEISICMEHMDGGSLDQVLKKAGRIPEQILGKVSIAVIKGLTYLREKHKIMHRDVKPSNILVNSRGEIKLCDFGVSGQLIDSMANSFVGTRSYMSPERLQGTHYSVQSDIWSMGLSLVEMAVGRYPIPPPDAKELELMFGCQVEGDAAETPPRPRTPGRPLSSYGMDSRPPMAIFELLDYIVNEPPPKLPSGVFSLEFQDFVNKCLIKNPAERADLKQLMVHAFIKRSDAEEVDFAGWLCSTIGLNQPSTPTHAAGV
Sequence of ABL1 (P00519 whole entry): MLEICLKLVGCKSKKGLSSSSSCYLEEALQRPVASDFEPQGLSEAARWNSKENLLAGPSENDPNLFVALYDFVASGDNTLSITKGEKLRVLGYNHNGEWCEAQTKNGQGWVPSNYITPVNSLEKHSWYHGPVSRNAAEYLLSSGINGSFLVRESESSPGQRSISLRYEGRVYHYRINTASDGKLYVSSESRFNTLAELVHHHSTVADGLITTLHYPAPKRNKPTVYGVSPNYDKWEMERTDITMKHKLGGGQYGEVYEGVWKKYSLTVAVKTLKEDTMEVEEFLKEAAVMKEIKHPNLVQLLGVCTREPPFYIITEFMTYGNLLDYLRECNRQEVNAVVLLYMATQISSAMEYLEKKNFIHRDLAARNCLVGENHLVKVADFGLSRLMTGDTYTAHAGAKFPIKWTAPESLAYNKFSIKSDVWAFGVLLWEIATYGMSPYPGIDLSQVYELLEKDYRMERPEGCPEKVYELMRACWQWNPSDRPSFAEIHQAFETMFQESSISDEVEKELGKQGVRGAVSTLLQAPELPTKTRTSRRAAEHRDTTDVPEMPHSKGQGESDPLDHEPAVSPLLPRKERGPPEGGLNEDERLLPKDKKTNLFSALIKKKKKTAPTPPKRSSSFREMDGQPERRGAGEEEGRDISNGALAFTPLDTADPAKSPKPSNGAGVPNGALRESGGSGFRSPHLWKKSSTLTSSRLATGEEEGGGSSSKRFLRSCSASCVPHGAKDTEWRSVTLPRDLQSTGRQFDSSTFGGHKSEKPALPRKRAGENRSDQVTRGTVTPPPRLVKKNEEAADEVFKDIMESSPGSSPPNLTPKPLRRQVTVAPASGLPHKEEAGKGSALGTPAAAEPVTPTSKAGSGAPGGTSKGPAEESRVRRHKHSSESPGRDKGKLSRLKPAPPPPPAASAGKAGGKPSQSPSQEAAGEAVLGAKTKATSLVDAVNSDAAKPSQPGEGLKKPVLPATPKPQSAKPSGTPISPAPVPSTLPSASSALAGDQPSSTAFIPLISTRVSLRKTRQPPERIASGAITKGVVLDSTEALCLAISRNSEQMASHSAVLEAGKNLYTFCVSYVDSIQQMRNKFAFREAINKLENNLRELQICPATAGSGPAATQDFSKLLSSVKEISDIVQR
Sequence of PRKCE (PKCε) (Q02156 whole entry): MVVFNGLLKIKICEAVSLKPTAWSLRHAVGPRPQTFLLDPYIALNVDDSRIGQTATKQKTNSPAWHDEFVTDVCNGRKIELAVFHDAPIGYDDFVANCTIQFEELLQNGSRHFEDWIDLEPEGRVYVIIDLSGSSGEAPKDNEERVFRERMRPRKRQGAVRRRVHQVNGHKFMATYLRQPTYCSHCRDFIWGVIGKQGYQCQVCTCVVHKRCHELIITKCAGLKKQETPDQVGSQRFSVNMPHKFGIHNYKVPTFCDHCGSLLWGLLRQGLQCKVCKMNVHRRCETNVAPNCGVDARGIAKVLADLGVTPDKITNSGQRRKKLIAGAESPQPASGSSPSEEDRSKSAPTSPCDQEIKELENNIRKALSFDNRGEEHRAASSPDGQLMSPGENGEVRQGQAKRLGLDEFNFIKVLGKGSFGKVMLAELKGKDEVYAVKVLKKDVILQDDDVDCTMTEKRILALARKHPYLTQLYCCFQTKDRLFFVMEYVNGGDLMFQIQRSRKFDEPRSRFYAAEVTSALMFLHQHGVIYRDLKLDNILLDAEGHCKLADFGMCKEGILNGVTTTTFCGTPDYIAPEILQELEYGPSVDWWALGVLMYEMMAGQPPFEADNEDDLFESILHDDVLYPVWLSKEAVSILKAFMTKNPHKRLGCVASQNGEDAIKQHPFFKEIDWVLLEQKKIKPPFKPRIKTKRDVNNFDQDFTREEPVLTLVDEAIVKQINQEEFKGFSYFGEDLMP
Sequence of MAPK1 (ERK2) (P28482 whole entry): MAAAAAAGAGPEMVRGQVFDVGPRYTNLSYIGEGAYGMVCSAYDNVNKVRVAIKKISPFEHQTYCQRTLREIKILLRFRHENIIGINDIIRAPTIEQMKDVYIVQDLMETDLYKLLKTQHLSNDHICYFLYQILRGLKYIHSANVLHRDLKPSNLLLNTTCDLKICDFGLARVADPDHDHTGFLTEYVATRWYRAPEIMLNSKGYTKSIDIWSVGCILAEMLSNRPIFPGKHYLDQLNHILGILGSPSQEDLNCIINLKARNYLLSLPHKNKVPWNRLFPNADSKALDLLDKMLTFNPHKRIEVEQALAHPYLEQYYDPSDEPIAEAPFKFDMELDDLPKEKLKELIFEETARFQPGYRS
Sequence of CDK5/p35 (Q00535 whole entry): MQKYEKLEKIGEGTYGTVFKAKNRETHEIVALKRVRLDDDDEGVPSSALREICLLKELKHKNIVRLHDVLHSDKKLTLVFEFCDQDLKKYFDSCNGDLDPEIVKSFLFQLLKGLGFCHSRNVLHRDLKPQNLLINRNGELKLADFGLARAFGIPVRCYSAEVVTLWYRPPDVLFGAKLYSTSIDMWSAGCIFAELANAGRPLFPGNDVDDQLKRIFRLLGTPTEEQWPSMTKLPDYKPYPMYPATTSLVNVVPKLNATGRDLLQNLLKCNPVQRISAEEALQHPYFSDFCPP
Sequence of CDK5/p35 (Q15078 whole entry partner): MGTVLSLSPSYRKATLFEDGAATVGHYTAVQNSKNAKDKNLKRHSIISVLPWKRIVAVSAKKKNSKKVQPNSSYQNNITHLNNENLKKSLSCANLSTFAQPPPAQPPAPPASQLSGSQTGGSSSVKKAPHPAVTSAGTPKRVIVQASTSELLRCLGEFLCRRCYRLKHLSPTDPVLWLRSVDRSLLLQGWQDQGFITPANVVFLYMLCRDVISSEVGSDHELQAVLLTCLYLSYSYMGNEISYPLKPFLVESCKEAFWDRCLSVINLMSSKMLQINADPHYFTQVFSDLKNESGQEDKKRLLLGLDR

## O=P(O)(O)OC1C(O)C(OP(=O)(O)O)C(OP(=O)(O)O)C(OP(=O)(O)O)C1OP(=O)(O)O (stereo not shown) [InsP5, inositol 1,3,4,5,6-pentakisphosphate]
Akt1 (PKBα)
  IC50: > 100 µM
MAPK3 (ERK1); 10 µM compound
  inhibition at 10 µM: 3%
BTK; 10 µM compound
  inhibition at 10 µM: 8%
BRAF; 10 µM compound
  inhibition at 10 µM: 10%
PC3
  concentrations able to mimic the effect of 2-O-Bn-InsP5: 200 to 300 µM
  number of surviving cells: no effect in PC3 at concentrations up to 50 μM
PRKCA (PKCα); 10 µM compound
  inhibition at 10 µM: 30%
CDK5/p35; 10 µM compound
  inhibition at 10 µM: 5%
MAP2K1 (MEK1); 10 µM compound
  inhibition at 10 µM: 7%
GSK3A (GSK3α); 10 µM compound
  inhibition at 10 µM: 15%
PRKCB1 (PKCβI); 10 µM compound
  inhibition at 10 µM: 17%
ABL1; 10 µM compound
  inhibition at 10 µM: -16%
GRK5
  inhibition at 1 µM: 37%
MARK1 (MARK); 10 µM compound
  inhibition at 10 µM: 7%
CLK1; 10 µM compound
  inhibition at 10 µM: 9%
CHUK (IKKα); 10 µM compound
  inhibition at 10 µM: 3%
PRKCE (PKCε); 10 µM compound
  inhibition at 10 µM: 0%
CSNK2A2 (CK2α2); 10 µM compound
  inhibition at 10 µM: 18%
ROCK2; 10 µM compound
  inhibition at 10 µM: 15%
JAK1; 10 µM compound
  inhibition at 10 µM: -2%
MAPK8 (JNK1); 10 µM compound
  inhibition at 10 µM: 14%
RAF1 (cRAF) Y340D Y341D; 10 µM compound
  inhibition at 10 µM: 18%
GSK3B (GSK3β); 10 µM compound
  inhibition at 10 µM: 20%
CHEK1 (CHK1); 10 µM compound
  inhibition at 10 µM: 17%
IRAK4; 10 µM compound
  inhibition at 10 µM: -5%
RPS6KB1 (p70S6K); 10 µM compound
  inhibition at 10 µM: 9%
CSNK1A1 (CK1α1); 10 µM compound
  inhibition at 10 µM: 13%
MAPK1 (ERK2); 10 µM compound
  inhibition at 10 µM: 8%

## O=P(O)(O)OC1C(OCc2ccccc2)C(OP(=O)(O)O)C(OP(=O)(O)O)C(OP(=O)(O)O)C1OP(=O)(O)O (stereo not shown) [2-O-Bn-InsP5, 2-O-benzyl-myo-inositol 1,3,4,5,6-pentakisphosphate]
Akt1 (PKBα)
  IC50: > 100 µM
MAPK3 (ERK1); 1 µM compound
  inhibition at 1 µM: 19%
BTK; 1 µM compound
  inhibition at 1 µM: 5%
BRAF; 1 µM compound
  inhibition at 1 µM: 5%
PC3
  number of surviving cells: Higher activity
PRKCA (PKCα); 1 µM compound
  inhibition at 1 µM: 21%
CDK5/p35; 1 µM compound
  inhibition at 1 µM: 2%
MAP2K1 (MEK1); 1 µM compound
  inhibition at 1 µM: 14%
GSK3A (GSK3α); 1 µM compound
  inhibition at 1 µM: 3%
PRKCB1 (PKCβI); 1 µM compound
  inhibition at 1 µM: 11%
ABL1; 1 µM compound
  inhibition at 1 µM: 0%
GRK5
  inhibition at 1 µM: 34%
MARK1 (MARK); 1 µM compound
  inhibition at 1 µM: 0%
CLK1; 1 µM compound
  inhibition at 1 µM: -4%
CHUK (IKKα); 1 µM compound
  inhibition at 1 µM: -2%
PRKCE (PKCε); 1 µM compound
  inhibition at 1 µM: 14%
CSNK2A2 (CK2α2); 1 µM compound
  inhibition at 1 µM: 2%
ROCK2; 1 µM compound
  inhibition at 1 µM: 13%
JAK1; 1 µM compound
  inhibition at 1 µM: -1%
MAPK8 (JNK1); 1 µM compound
  inhibition at 1 µM: 24%
RAF1 (cRAF) Y340D Y341D; 1 µM compound
  inhibition at 1 µM: 5%
GSK3B (GSK3β); 1 µM compound
  inhibition at 1 µM: 11%
CHEK1 (CHK1); 1 µM compound
  inhibition at 1 µM: 15%
IRAK4; 1 µM compound
  inhibition at 1 µM: -35%
RPS6KB1 (p70S6K); 1 µM compound
  inhibition at 1 µM: 17%
CSNK1A1 (CK1α1); 1 µM compound
  inhibition at 1 µM: 0%
MAPK1 (ERK2); 1 µM compound
  inhibition at 1 µM: 6%
